Data set [1] is described as follows: Metabolic soft-spot determination in HLM using LC/UV/Qtrap. On the procedure:
A specific incubation time for the individual test compounds was set up for 1–20 min based on their metabolic stability T1/2 values (Table 1). An LC/UV/Qtrap system with an Ultimate XB-C18 column (100 mm × 2.1 mm, 1.8 µm, Welch, China) was employed for quantitative and qualitative analyses of metabolites of the test compounds in HLM incubations. The mobile phases were the same as the metabolic stability assay, and the flow rate was 0.3 mL/min. […] The mass spectrometer was operated in positive ion mode using a successive multiple ion monitoring-triggered enhanced product ion scan (MIM-EPI) mode. […] All the ion source parameters were set as the following values: CUR: 30 psi; IS: 5500 V; TEM: 500 °C; GS1 and GS2: 50 psi; DP: 70 V. A criterion for the data-dependent EPI was set for the three most intense ions in each dynamic background subtraction (DBS) survey scan spectrum with an intensity threshold of 500 cps. The CE was set to 5 eV for the survey scan and 40 eV with CE spread (CES) of 15 eV for the dependent EPI scan. The scan speed for ER and EPI were 250 amu/s and 20,000 amu/s, respectively. LC/UV profiles of individual incubation were generated to reveal major metabolites using wavelengths on the λmax of parent compounds (Table S1). Protonated molecules of major metabolites were determined by matching major metabolite peak(s) in LC/UV profiles to similar ion peaks shown in LC/MS profiles from the MIM scanning or data processing. EIC, PIF, and NLF tools on PeakView SoftwareTM 1.2 (AB SCIEX, Foster City, CA, USA) were used to process LC/MS and LC/MS2 datasets. MS/MS spectral data of major metabolites were retrieved from corresponding LC/MS2 data based on their protonated molecules. The structural characterization of major metabolites was carried based on interpretation of their MS/MS spectra and biotransformation knowledge.

A further data set is described as follows: in vitro. The conditions noted are these: human, microsomes, pH 7.4.
Data set [2] in a line: Metabolic soft-spot determination in HLM using LC/UV/Q-TOF (Triple TOF). The conditions noted are these: 8 min.
Method: (§1) Supernatants of incubation samples were dried under nitrogen and then reconstituted in 100 μL of 5% acetonitrile in water prior to analysis using LC/UV/HRMS.
(§2) An LC/MS system consisted of an LC instrument (Shimadzu HPLC with a photodiode array detector (PDA), Shimadzu, Kyoto, Japan) and TripleTOF (AB 4600, Sciex, Framingham, MA, USA) was employed. LC separation was carried out using a Phenomenex Kinetex-C18 (2.1 × 150 mm, 2.6 μm, CA) and a mobile phase comprised of 0.1% formic acid (v/v) in water (solvent A) and 0.1% formic acid in acetonitrile (v/v) (solvent B). The total running time was 5 min, and the flow rate was 0.4 mL/min. […] The mass spectrometer was operating in the positive electrospray ionization mode in the m/z range of 100–1000. Dynamic background subtraction (DBS) was employed to record full-scan MS and MS/MS data simultaneously. Two approaches were used for finding and confirming protonated molecules of major metabolites. One approach was to directly get the information by reviewing full-scan MS spectra of peaks in unprocessed LC/MS dataset, which had very similar LC retention times and peak shapes to those of major metabolites shown in corresponding LC/UV profiles.
For data set [3] the following is noted: 0.5 µM, HLM 0.5 mg/mL, 60 min, LC/MS analysis of the parent drug; cited from earlier work.
For data set [4] the following is noted: human, 3 µM, pH 7.4; for Major metabolites relative abundance (% of total UV peak areas of drug and its metabolites): 60 min.
Method: as §1, §2
Data set [5] can be described thus: Determination of metabolic stability in HLM. The following applies: human, microsomes, pH 7.4.
For data set [6] the following is noted: HLM, 10 µM, 60 min, cited from earlier work.

Like-named read-outs stand apart in the source and are kept apart here.

`CCNCc1cc(Nc2ccnc3cc(Cl)ccc23)ccc1O` [AM1]: in data set [1] (human, 1 min, 3 µM, pH 7.4), the “Major metabolites relative abundance (% of total UV peak areas of drug and its metabolites)” value is reported as “Deethylation: AM1 (26.5%)”.
For `CCN(CC)Cc1cc(Nc2ccnc3cc(Cl)ccc23)ccc1O` [Amodiaquine, amodiaquine], in the data set “in vitro”, the half-life at 0.5 µM was found to be 1.3 min. In data set [1] (human, 1 min, 3 µM, pH 7.4), the “Disappearance of the parent” value was 23%; the “The parent drug relative abundance (% of total UV peak areas of drug and its metabolites)” value is “Amodiaquine (77.0%)”.
For `O=C1CC2(CCC(O)C2)CC(=O)N1CCCCN1CCN(c2ncccn2)CC1` (centres unmarked) [B3], the “Major metabolites relative abundance (% of total UV peak areas of drug and its metabolites)” value in data set [2] (buspirone 3 μM) came to 12.1%.
The same measure, in the same setting: the value for `O=C1CC2(CCCC2)C(O)C(=O)N1CCCCN1CCN(c2ncccn2)CC1` (centres unmarked) [B10] was 16.5%; that for `O=C1CC2(CCCC2)CC(=O)N1CCCCN1CCN(c2ncc(O)cn2)CC1` [B12] was 5.2%; that for `O=C1CC2(CCCC2)CC(=O)N1CCCC[N+]1([O-])CCN(c2ncccn2)CC1` [B15] was 7.1%.
`O=C1CC2(CCCC2)CC(=O)N1CCCCN1CCN(c2ncccn2)CC1` [Buspirone, buspirone, reference compound]: the “T1/2 in HLM” value in data set [3] was “Buspirone ^d (7.6 min)”. Also, the “The parent drug relative abundance (% of total UV peak areas of drug and its metabolites)” value in data set [4] (8 min) is “Buspirone (59.1%)”.
As to `COc1ccc2c(c1)[C@]13CCCC[C@@H]1[C@H](C2)N(C)CC3` [Dextromethorphan, dextromethorphan], in data set [5], the half-life at 0.5 µM is 24 min. Further, the “The parent drug relative abundance (% of total UV peak areas of drug and its metabolites)” value in data set [1] (dextromethorphan 3 μM, 30 min, HLM) is “Dextromethorphan (75.5%)”; in data set [1] (dextromethorphan 3 μM, 30 min, HLM, listed as dextromethorphan) it was 75.5%.
Take `CN1CCN2c3ncc(O)cc3Cc3ccccc3C2C1` (centres unmarked) [M1]: the “Major metabolites relative abundance (% of total UV peak areas of drug and its metabolites)” value in data set [4] was 10.7%.
Consider `c1ccc2c(c1)Cc1cccnc1N1CCNCC21` (centres unmarked) [M2], for which the “Major metabolites relative abundance (% of total UV peak areas of drug and its metabolites)” value in data set [4] amounted to 8.1%.
With `OCc1ncc2n1-c1ccc(Cl)cc1C(c1ccccc1F)=NC2` [MM2], the “Major metabolites relative abundance (% of total UV peak areas of drug and its metabolites)” value in data set [1] (midazolam 3 μM, 2 min, HLM) is “Mono-oxidation: MM2 (29.0%)”.
Turning to `Cc1ncc2n1-c1ccc(Cl)cc1C(c1ccccc1F)=NC2` [Midazolam, midazolam], in data set [1] (midazolam 3 μM, 2 min, HLM), the “Disappearance of the parent” value came out at 31%.
With `CNCCCC(C#N)(c1ccc(OC)c(OC)c1)C(C)C` (centres unmarked) [V1], in data set [2] (verapamil 5 μM), the “Major metabolites relative abundance (% of total UV peak areas of drug and its metabolites)” value turned out to be 6.1%.
In the case of `COc1ccc(CCNCCCC(C#N)(c2ccc(OC)c(OC)c2)C(C)C)cc1OC` (centres unmarked) [V5], in data set [2] (verapamil 5 μM), the “Major metabolites relative abundance (% of total UV peak areas of drug and its metabolites)” value is 14.7%.
Turning to `CNCCCC(C#N)(c1ccc(OC)c(OC)c1)C(C)C` (centres unmarked) [VM2], the “Major metabolites relative abundance (% of total UV peak areas of drug and its metabolites)” value in data set [1] (human, 4 min, 3 µM, pH 7.4) is recorded as 8.9%.
On the same count and under the same terms, to `COc1ccc(CCNCCCC(C#N)(c2ccc(OC)c(OC)c2)C(C)C)cc1OC` (centres unmarked) [VM8] belongs 19.0%.
For `CN(C)CCC1(c2ccccc2)CCc2ccccc2C1=O` (centres unmarked) [nafenodone], in data set [6] (estimated), the “Disappearance of the parent” value is listed as “over 80%”. The “Number of oxidative metabolites formed” value in data set [6] is 26.

The values above are taken from PMC9693510, “High-Throughput Metabolic Soft-Spot Identification in Liver Microsomes by LC/UV/MS: Application of a Single Variable Incubation Time Approach” (Molecules, 2022).
